According to patent US9539272B2, “HDAC 6 inhibitor-based methods for treating cancer” (SLOAN-KETTERING INSTITUTE FOR CANCER RESEARCH, priority 2009, dated 2017):
“And” between values parts separate entries of the source, which are not always exact repeats. Equal values may be shown once. “Also recorded” adds a separate entry of the source.

Columns and labels:
[1] = biological target: recombinant human HDAC1 (Homo sapiens, UniProt Q13547); test: In vitro HDAC assay with fluorogenic substrate, HDAC 1
recombinant human HDAC1, sequence (Q13547 whole entry): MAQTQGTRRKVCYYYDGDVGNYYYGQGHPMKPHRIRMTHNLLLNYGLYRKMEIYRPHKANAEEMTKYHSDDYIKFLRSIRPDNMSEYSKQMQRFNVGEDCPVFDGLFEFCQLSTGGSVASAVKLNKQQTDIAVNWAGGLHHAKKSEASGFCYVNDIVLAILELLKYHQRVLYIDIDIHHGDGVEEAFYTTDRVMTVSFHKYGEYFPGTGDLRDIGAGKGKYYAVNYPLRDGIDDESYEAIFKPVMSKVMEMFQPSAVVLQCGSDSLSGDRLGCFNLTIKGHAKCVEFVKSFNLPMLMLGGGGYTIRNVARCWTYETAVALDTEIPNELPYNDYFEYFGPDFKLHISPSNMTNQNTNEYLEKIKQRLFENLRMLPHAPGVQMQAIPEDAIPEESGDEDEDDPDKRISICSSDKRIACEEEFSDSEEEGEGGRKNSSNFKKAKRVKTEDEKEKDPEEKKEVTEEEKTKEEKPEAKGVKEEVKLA
Protocol: Inhibition of HDAC 1 and HDAC 6 were analyzed with a fluorogenic substrate according to manufacture's protocol (HDAC assay reagents were purchased from BPS Biosciences, San Diego, Calif.). 50 μl reaction mixture, which contains 1×HDAC assay buffer, 5 units of recombinant human HDAC1 or HDAC 6, 10 μM substrate 3 and 1 μl inhibitor in DMSO, was incubated at 37° C. for 1 hour. […] The fluorescence intensity was measured at excitation of 360 nm and emission of 460 nm with SpectraMax Gemini XS microplate reader (Molecular Devices, Sunny Calif.).

[2] = system: LNCaP cells; test: Cell growth and viability by trypan blue exclusion, LNCaP
Protocol: (§1) 5×10^4 cells were seeded per well in a 24-well plate and cultured overnight prior to treating with the compound and/or other agents as indicated for each study. Cells were harvested at 24, 48 and 72 hrs after treatment by trypsin digestion. […] At least three independent analyses were performed for each time point.
(§2) To monitor cell growth and viability, cells were seeded in triplicate at 5×10^4 cells in 1 ml of medium in 24-well plates. The drugs were added at the indicated concentrations 24 h after seeding. Cells were harvested by trypsin digestion at 24 h, 48 h and 72 h following drug additions. Cell number and viability were determined by trypan blue exclusion.

[3] = system: acetylated α-tubulin and acetylated histone H3 in LNCaP cells; test: Accumulation of acetylated α-tubulin and acetylated histone H3 in LNCaP cells (Western blot); assay type: cell-based, human; conditions: BAHA 1.0 or 1.5 μM, SAHA 1.5 and 2.0 μM
Protocol: 2×10^6 transformed cells were cultured for 24 hrs in a 10 cm tissue culture dish with 10 ml RPMI 1640 medium. HDAC inhibitors and/or other agents were added in concentrations as indicated for each study to the cultures and cell cultured for times indicated. Cells were harvested by scrapping, washed once with PBS, lyzed with histone extraction buffer (1 ml/10^7 cells), which contains 10 mM MgCl2, 10 mM Tris, 25 mM KCl, 1% Triton X-100, 8.6% sucrose and protease inhibitor cocktail (Roche Diagnostics Gmbh, Indianapolis, Ind.), pH 6.5. Cells were centrifuged at 600 g at 4° C. for 5 mins. The supernatants were saved as cell lyates. The pellets (nuclei) were washed once with TE buffer, suspended in 0.4 NH2SO4 (100 μl/10^7 cells), incubated for 1 hr on ice, and centrifuged at 10,000 g for 10 mins at 4° C. The supernatant was collected, mixed with 1 ml acetone, incubated at −20° C. for more than 1 hr, and centrifuged at 10,000 g for 10 mins at 4° C. The pellets were suspended in water (100 μl/10^7 cells). The protein concentrations were measured with Braford reagent (Bio-Rad, Hercules, Calif.).
1×10^6 cells in a 10 cm diameter cell culture dish were washed with PBS, harvested by trypsinization in 0.05% trypsin for LNCaP and 0.25% trypsin for MCF7, A549, HFS and WI38 resuspended in RIPA at 50 μl for every 1×10^6 cells. Antibodies used were: anti-acetylated tubulin (Sigma), anti-HDAC 6 (Santa Cruz Biotechnology), and anti-tubulin (Calbiochem), (Xu et al. Cancer Research, 65:7832-7839, 2005).

[4] = system: PARP; test: PARP cleavage in LNCaP cells (Western blot); conditions: 48 h
Protocol: (§3) 1×10^6 cells were seeded in a 10 cm diameter cell culture dish and cultured overnight prior to addition of the indicated drugs, washed with PBS, harvested by trypsinisation and lysed in RIPA buffer (50 mM Tris-HCL pH8.0, 120 mM NaCl, 0.5 mM EDTA, 0.5% NP-40). […] Quantitation of western blots was performed using ImageJ.

[5] = system: LNCaP cells; test: Cell cycle analysis by flow cytometry, LNCaP; assay type: cell-based, human; conditions: 24 h, propidium iodide
Protocol: Cells were harvested at 24 h culture with the indicated drugs, washed with PBS and fixed in methanol. Cells were then resuspended in a buffer containing […] propidium iodide and […] RNase A. Samples were analysed by flow cytometry using a Becton Dickinson FACSCalibur flow cytometer. Data were collected for 10,000 events and analyzed using FlowJo software.

[6] = system: HFS cells; test: Cell viability, normal human foreskin cells (HFS); assay type: cell-based; conditions: 8 μM tubacin, 5 μM SAHA, alone or together
Protocol: as §1, §2

[7] = system: γH2AX; test: Accumulation of γH2AX in LNCaP cells (Western blot, ImageJ quantitation); assay type: cell-based, human; conditions: 24 h
Protocol: as §3

[8] = system: MCF-7 cells; test: Cell growth and viability by trypan blue exclusion, MCF-7; assay type: cell-based, human; conditions: MCF-7, 72 hrs; 8 μM tubacin, 5 μM SAHA, […] doxorubicin, 100 μM etoposide, alone or plus 8 μM tubacin
Protocol: as §1, §2

[9] = system: WI38 cells; test: Cell viability, normal human embryonic fibroblast WI38; assay type: cell-based; conditions: 8 μM tubacin, 5 μM SAHA, alone or together
Protocol: as §1

[10] = system: LNCaP cells; test: Quantitative real-time PCR in LNCaP cells; assay type: cell-based, human; conditions: for expression of Mcm4, Mcm6, Cdt1 and Psf2: quantitative real-time PCR
Protocol: […] of total RNA was reverse-transcribed using the Thermoscript RT-PCR system (Invitrogen) at 52° C. for 1 h. 20 ng of resultant cDNA was used in a Q-PCR reaction using an 7500 Real-Time PCR System (Applied Biosystems) using predesigned primers for DDIT3, DDIT4, Mcm4, Mcm6, Cdt1, Psf2 and GAPDH (Applied Biosystems). Amplification was carried for 40 cycles (95° C. for 15 sec, 60° C. for 1 min). To calculate the efficiency of the PCR reaction, and to assess the sensitivity of each assay, we performed a 6 point standard curve (5, 1.7, 0.56, 0.19, 0.062, and 0.021 ng). Triplicate CT values were averaged, amounts of target were interpolated from the standard curves and normalized to GAPDH (assay Hs99999909_m1).

[11] = system: LNCaP cells; test: Microarray analysis of gene expression in LNCaP cells; assay type: cell-based, human; set-up: Total gene number: dose or concentration left out as unconfirmed
Protocol: Alterations in gene expression were evaluated by microarray using the Illumina human cDNA array containing cDNA probes representing the whole genome (10000 genes). […] Triplicate samples were prepared for each drug treatment at each time point. Poly(A)+ mRNA was isolated from cells using Trizol reagent according to manufacturer's protocol (Invitrogen). The data was analyzed using the Bioconductor packages (www.bioconductor.com) for the R statistical system. The output from Beadstudio was processed using the LUMI package. The normalization method used was quantile and the signal levels were log (base 2) transformed. To determine genes that are differentially expressed between the various sample types, the LIMMA package was used.

[12] = system: phospho-Chk2; test: Accumulation of phospho-Chk2 in LNCaP cells (Western blot); assay type: cell-based, human; conditions: 24 h
Protocol: as §3

[13] = system: LNCaP HDAC 6 knockdown cells; test: Cell viability, LNCaP HDAC 6 knockdown cells; assay type: cell-based, human
From the text: shRNA lentiviral particles targeting different regions of HDAC6 mRNA, HDAC6 KD1 (HDAC6 knockdown 1) at 1.7×10^7 TU/ml and HDAC6 KD2 (HDAC6 knockdown 2) at 1.9×10^7 TU/ml, and a non-targeting ‘scramble’ shRNA control particles (#SHC002V) at 1.1×10^7 TU/ml, were purchased from Sigma-Aldrich and transfected according to the manufacturer's instructions using polybrene (Millipore). The 21-nucleotide sequence corresponding to HDAC6 mRNA for HDAC6 KD1 is 5′-[…]-3′ and for HDAC6 KD2 is 5′-[…]-3′. For each shRNA, 5×10^5 cells were infected at an MOT of 2.

[14] = system: acetylated tubulin and acetylated histone H3 in A549 cells; conditions: 24 hrs, tubacin 0.2, 2 or 20 μM; cited from earlier work
[15] = LNCaP, 25 μM or 50 μM SAHA, 72 hrs

## CC(C)(C)OC(=O)Nc1ccc(-c2cc(C(=O)NCCCCCCC(=O)NO)no2)cc1 [BAHA]
[1]
  IC50: 53.7 nM
[2]; LNCaP, 1 μM BAHA
  cell death: no cell death
  cell growth: moderate inhibition
[3]
  accumulation of acetylated histone H3: little or no accumulation
  accumulation of acetylated α-tubulin: caused the accumulation

## O=C(CCCCCCC(=O)Nc1ccccc1)NO [SAHA, Suberoylanilide Hydroxamic Acid]
[4]; 2.5 mM SAHA
  PARP cleavage: did not result in PARE cleavage
[4]; 5 mM SAHA
  PARP cleavage: resulted in PARP cleavage
[5]
  cell cycle distribution: increase in both G1 and G2 arrested cells
[6]
  cell death: did not cause cell death
[7]
  accumulation of γH2AX: increased
[8]
  cell death: 40%
  rate of cell growth: markedly decreased
[9]
  cell death: did not cause cell death
[2]; LNCaP, 1.25 μM SAHA, alone or plus 1 μM BAHA, 72 hrs
  cell death: no detectable cell death
[2]; LNCaP, 2.5 μM SAHA, alone or plus 1 μM BAHA, 72 hrs
  cell death: less than 10%
[2]; LNCaP, 2.5 μM SAHA, alone or with 8 μM tubacin, 72 hrs
  cell death: no detectable
[2]; LNCaP, 5 μM SAHA, alone or plus 1 μM BAHA, 72 hrs
  cell death: 65%
[2]; LNCaP, 5 μM SAHA, alone or with 8 μM tubacin, 72 hrs
  cell death: 45%
[2]; [15]
  cell death: 100%
  cell growth: growth inhibition
[2]; LNCaP, 2.5, 5 or […] SAHA, alone or plus 8 μM tubacin
  rate of cell growth: markedly decreased
[2]; LNCaP, […] SAHA, alone or plus 8 μM tubacin, after 8 hrs
  cell death: 40%
[2]; wild type LNCaP, 2.5 μM SAHA, 72 hrs (knockdown comparison)
  cell death: no cell death
[2]; wild type LNCaP, 5.0 μM SAHA, 72 hrs (knockdown comparison)
  cell death: 35%
[3]
  accumulation of acetylated histone H3: caused an increase in accumulation
  accumulation of acetylated α-tubulin: caused an increase in accumulation
[10]
  expression of Mcm4, Mcm6, Cdt1 and Psf2: downregulated
[11]; 2 h
  DDIT3 gene expression change: 2.18 fold
  DDIT4 gene expression change: * (No detectable change of ≧2-fold)
[11]; 2 h, genes changed ≧2-fold
  Total gene number: 37
[11]; 2 h, ≧2-fold
  Downregulated genes: 16
  Upregulated genes: 21
[11]; 8 h
  DDIT4 gene expression change: 5.36 fold
[11]; 8 h, ≧2-fold
  Downregulated genes: 302
  Total gene number: 628
  Upregulated genes: 326
[11]; 24 h
  DDIT4 gene expression change: 3.81 fold
[11]; 24 h, ≧2-fold
  Downregulated genes: 989
  Total gene number: 1951
  Upregulated genes: 962
[12]
  level of phospho-Chk2: increase of phospho-Chk2
[13]; LNCaP HDAC 6 knockdown, 2.5 μM SAHA, 72 hrs
  cell death: 25%
[13]; LNCaP HDAC 6 knockdown, 5.0 μM SAHA, 72 hrs
  cell death: 80%

## CC(/C=C/C(=O)NO)=C\[C@@H](C)C(=O)c1ccc(N(C)C)cc1 [Trichostatin A]
[14]
  accumulation of acetylated histone H3: caused the accumulation
  accumulation of acetylated tubulin: caused the accumulation

## COc1cccc2c1C(=O)c1c(O)c3c(c(O)c1C2=O)C[C@@](O)(C(=O)CO)C[C@@H]3O[C@H]1C[C@H](N)[C@H](O)[C@H](C)O1 [doxorubicin]
[8]
  cell death: 25%
  rate of cell growth: markedly decreased
[2]; LNCaP, 5 nM doxorubicin, alone or plus 8 μM tubacin, 48 hrs
  cell death: 40%
[2]; LNCaP, 10 nM doxorubicin, alone or plus 8 μM tubacin
  rate of cell growth: decreased
[2]; LNCaP, […] doxorubicin, alone or plus 8 μM tubacin, 48 hrs
  cell death: 80%
[2]; wild type LNCaP, 10 nM doxorubicin, 72 hrs
  cell death: 45%
[2]; wild type LNCaP, 100 nM doxorubicin, 72 hrs
  cell death: 75%
[2]; wild type LNCaP, 500 nM doxorubicin, 72 hrs
  cell death: 85%
[13]; LNCaP HDAC 6 knock down, 10 nM doxorubicin, 72 hrs
  cell death: 85%
[13]; LNCaP HDAC 6 knock down, 100 nM doxorubicin, 72 hrs
  cell death: 90%
[13]; LNCaP HDAC 6 knock down, 500 nM doxorubicin, 72 hrs
  cell death: 95%

## COc1cc([C@@H]2c3cc4c(cc3[C@@H](O[C@@H]3O[C@@H]5CO[C@@H](C)O[C@H]5[C@H](O)[C@H]3O)[C@H]3COC(=O)[C@H]23)OCO4)cc(OC)c1O [etoposide]
[5]
  cell cycle distribution: small increase in cells in G1
[8]
  cell death: 30%
  rate of cell growth: markedly decreased
[2]; LNCaP, 50 μM etoposide, alone or plus 8 μM tubacin, 72 hrs
  cell death: 50%
[2]; LNCaP, 100 μM etoposide, alone or plus 8 μM tubacin, 72 hrs
  cell death: 80%
[2]; wild type LNCaP, 10 μM etoposide, 48 hrs
  cell death: 10%
[2]; wild type LNCaP, 50 μM etoposide, 48 hrs
  cell death: 30%
[2]; wild type LNCaP, 100 μM etoposide, 48 hrs
  cell death: 40%
[10]
  expression of Mcm4, Mcm6, Cdt1 and Psf2: downregulated
[13]; LNCaP HDAC 6 knockdown, 10 μM etoposide, 48 hrs
  cell death: 20%
[13]; LNCaP HDAC 6 knockdown, 50 μM etoposide, 48 hrs
  cell death: 35%
[13]; LNCaP HDAC 6 knockdown, 100 μM etoposide, 48 hrs
  cell death: 55%

## O=C(CCCCCCC(=O)Nc1ccc([C@H]2O[C@@H](CSc3nc(-c4ccccc4)c(-c4ccccc4)o3)C[C@@H](c3ccc(CO)cc3)O2)cc1)NO [tubacin]
[5]
  cell cycle distribution: increase in G1 arrest
[1]
  IC50: 82 nM
[6]
  cell death: did not cause cell death
[7]
  accumulation of γH2AX: increased
[8]
  cell death: did not induce MCF-7 cell death
  rate of cell growth: somewhat decreased
[9]
  cell death: did not cause cell death
[2]; LNCaP, tubacin alone (8 μM), up to 72 hrs
  cell death: did not cause cell death; also recorded: did not induce LNCaP cell death
[10]
  DDIT4 expression by quantitative real-time PCR: upregulation
  expression of Mcm4, Mcm6, Cdt1 and Psf2: downregulated
[11]; 2 h
  DDIT3 gene expression change: * (No detectable change of ≧2-fold)
[11]; 2 h, genes changed ≧2-fold
  Total gene number: 1
[11]; 2 h, ≧2-fold
  Downregulated genes: 0
  Upregulated genes: 1
[11]; 8 h
  DDIT4 gene expression change: 5.54 fold
[11]; 8 h, ≧2-fold
  Downregulated genes: 1
  Total gene number: 7
  Upregulated genes: 6
[11]; 24 h
  DDIT3 gene expression change: 7 fold and 7.04 fold
  DDIT4 gene expression change: 6.8 fold
[11]; 24 h, ≧2-fold
  Downregulated genes: 72
  Total gene number: 225
  Upregulated genes: 153
[14]
  accumulation of acetylated histone H3: but not acetylated histone H3
  accumulation of acetylated tubulin: caused an accumulation
